Experimental data taken from US20220362222A1, “ONCE DAILY FORMULATIONS OF TACROLIMUS” (TFF Pharmaceuticals, Inc., priority 2021, published 2022).

Assays:
[1] = Pharmacokinetics of inhaled tacrolimus in healthy volunteers, 1 mg BID repeat dose group (Part B); format: in vivo, human
Method: The study is a blinded, randomized, placebo-controlled, multiple dose, dose-escalation study. Part B begins once the first three cohorts of Part A have completed and safety data has been reviewed. Twenty-four (24) healthy adult male and female (women of non-child-bearing potential only) subjects were enrolled. Eight (8) subjects were assigned to each of three dose levels (1.0 mg BID, 0.5 mg BID, or QD dose of either 1.0, 1.5, or 2.0mg, as determined by the SMC at the conclusion of Cohort 2 and after examining the safety and TDM data from that cohort) with six (6) subjects per cohort receiving tacrolimus inhalation and two (2) subjects receiving placebo.
Screening of subjects occurred within 28 days prior to the first dose administered. Study subjects were randomized to receive either a placebo or tacrolimus inhalation powder by inhalation. The subject assignment were blinded to the investigator, study coordinators and study subjects. Subjects were automatically replaced if they discontinue the study prior to dosing. On Day 1, subjects in each cohort begins receiving tacrolimus or placebo administered twice a day (every 12 hours) for Cohorts 1 and 2, and tacrolimus or placebo administered once per day (every 24 hours) for Cohort 3,through the Plastiape® inhaler. Blood samples and safety measurements were performed over 1 week as scheduled. […]
PK parameters for plasma tacrolimus are calculated as follows, as appropriate: AUC0-24: The area under the concentration-time curve, from time 0 to the 24-hour time point, as calculated by the linear trapezoidal method. If the 24-hour plasma concentration is missing, below the limit of quantification or not reportable, then this parameter will not be calculated. AUC0-t: The area under the concentration-time curve, from time 0 to the last observed non-zero concentration, as calculated by the linear trapezoidal method. […] AUC0-inf is calculated as the sum of AUC0-t plus the ratio of the last measurable plasma concentration to the elimination rate constant. […] CL/F Apparent total body clearance after oral administration, calculated as Dose/AUC0-inf. […] Kel: Apparent first-order terminal elimination rate constant calculated from a semi-log plot of the plasma concentration versus time curve. The parameter will be calculated by linear least-squares regression analysis using the maximum number of points in the terminal log-linear phase (e.g., three or more non-zero plasma concentrations). t1/2: Apparent first-order terminal elimination half-life are calculated as 0.693/Kel. Vz/F: Apparent volume of distribution during the terminal elimination phase after oral administration, calculated as […]. […]

[2] = oral administration, cited from earlier work
[3] = cited from earlier work
[4] = inhalation 1 mg BID, healthy volunteers

C=CC[C@@H]1/C=C(\C)C[C@H](C)C[C@H](OC)[C@H]2O[C@@](O)(C(=O)C(=O)N3CCCC[C@H]3C(=O)O[C@H](/C(C)=C/[C@@H]3CC[C@@H](O)[C@H](OC)C3)[C@H](C)[C@@H](O)CC1=O)[C@H](C)C[C@@H]2OC [tacrolimus, (1R,9S,12S,13R,14S,17R,18E,21S,23S,24R,25S,27R)-1,14-dihydroxy-12-[(E)-1-[(1R,3R,4R)-4-hydroxy-3-methoxycyclohexyl]prop-1-en-2-yl]-23 ,25-dimethoxy-13,19,21,27-tetramethyl-17-prop-2-enyl-11,28-dioxa-4-azatricyclo [22.3.1.0^4.8]octacos-18-ene-2,3,10,16-tetrone]
tacrolimus plasma exposure, actual arithmetic mean ([1]; inhalation 1 mg BID repeat dose, healthy volunteers, preliminary): 45 ng/mL
actual trough values at 12 hours post dose compared with simulated exposure ([1]; inhalation 1 mg BID, Day 1 and Day 7): closer to the upper 90% confidence interval for simulated exposure
Cmin (trough) concentrations at 12 h compared with oral PK model [1, 4]: slightly higher than predicted
observed Cmax compared with oral PK model [1, 4]: lower than predicted
absorption ([2]; Prograf label): < 25%
variability of absorption (%CV range) ([2]; depending on the study): 28-58%
solubility in water [3]: practically insoluble in water
